# Source: patent US12398132B2, “Derivatives of 4-(imidazo[1,2-a]pyridin-3-yl)-n-(pyridinyl)pyrimidin-2-amine as therapeutic agents” (AUCENTRA THERAPEUTICS PTY LTD, priority 2019, dated 2025)
# Substitutions are numbered along the chain they refer to. Like-named read-outs stand apart in the source and are kept apart here.
# What was measured:
# CDK6/D3 = CDK6/D3 (Homo sapiens, UniProt Q00534); experiment: ADP Glo kinase assay, CDK6/D3; format: biochemical; details: CDK6D3; for Ki: apparent Ki calculated from Km (ATP) and IC50, read-out: CDK inhibition Ki; for remaining activity at 10 µM: compound at 10 μM, read-out: residual enzymatic activity (%) at 10 μM; for remaining activity at 1 µM: compound at 1 μM (values marked *), read-out: residual enzymatic activity (%) at 1 μM*
# Sequence of CDK6/D3 (Q00534 whole entry, species assumed): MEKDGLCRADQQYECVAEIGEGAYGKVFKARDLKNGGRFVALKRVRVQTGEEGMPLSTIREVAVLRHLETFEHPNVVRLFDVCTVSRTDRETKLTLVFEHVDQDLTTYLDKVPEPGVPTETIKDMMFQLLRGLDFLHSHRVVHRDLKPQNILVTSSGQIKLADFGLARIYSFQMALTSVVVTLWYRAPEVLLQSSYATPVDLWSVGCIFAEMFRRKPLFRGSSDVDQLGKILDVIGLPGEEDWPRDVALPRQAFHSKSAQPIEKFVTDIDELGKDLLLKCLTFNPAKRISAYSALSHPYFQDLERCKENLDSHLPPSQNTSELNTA
# Sequence of CDK6/D3 (P30281 whole entry partner, species assumed): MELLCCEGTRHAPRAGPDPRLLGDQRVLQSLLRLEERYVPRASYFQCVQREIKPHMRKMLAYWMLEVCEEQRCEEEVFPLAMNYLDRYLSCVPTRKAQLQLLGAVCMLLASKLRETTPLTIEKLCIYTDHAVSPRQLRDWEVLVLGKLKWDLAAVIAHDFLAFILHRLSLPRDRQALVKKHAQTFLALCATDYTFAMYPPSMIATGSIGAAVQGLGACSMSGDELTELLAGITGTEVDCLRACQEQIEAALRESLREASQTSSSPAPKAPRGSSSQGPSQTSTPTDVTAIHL
# U937 = experiment: Proliferation assay (resazurin/MTT), U937; format: cell-based; details: Homo sapiens, U-937, read-out: 72 h Growth inhibition GI50, U937 cells
# MV-4-11 = experiment: Proliferation assay (resazurin/MTT), MV-4-11; format: cell-based; details: Homo sapiens, MV4-11, read-out: 72 h Growth inhibition GI50, MV-4-11 cells
# CDK1B [1] = biological target: T1, CDK1B (Homo sapiens, UniProt P06493); experiment: biochemical
# T1 sequence (P06493 whole entry): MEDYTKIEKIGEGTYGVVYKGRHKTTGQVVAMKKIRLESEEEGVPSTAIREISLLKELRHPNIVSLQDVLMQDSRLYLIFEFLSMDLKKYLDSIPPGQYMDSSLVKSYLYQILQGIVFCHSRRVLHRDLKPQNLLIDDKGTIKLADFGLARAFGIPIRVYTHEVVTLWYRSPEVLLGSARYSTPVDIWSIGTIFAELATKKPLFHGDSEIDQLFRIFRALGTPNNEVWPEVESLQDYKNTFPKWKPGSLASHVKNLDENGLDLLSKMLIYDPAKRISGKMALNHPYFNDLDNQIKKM
# T1 sequence (P14635 whole entry partner): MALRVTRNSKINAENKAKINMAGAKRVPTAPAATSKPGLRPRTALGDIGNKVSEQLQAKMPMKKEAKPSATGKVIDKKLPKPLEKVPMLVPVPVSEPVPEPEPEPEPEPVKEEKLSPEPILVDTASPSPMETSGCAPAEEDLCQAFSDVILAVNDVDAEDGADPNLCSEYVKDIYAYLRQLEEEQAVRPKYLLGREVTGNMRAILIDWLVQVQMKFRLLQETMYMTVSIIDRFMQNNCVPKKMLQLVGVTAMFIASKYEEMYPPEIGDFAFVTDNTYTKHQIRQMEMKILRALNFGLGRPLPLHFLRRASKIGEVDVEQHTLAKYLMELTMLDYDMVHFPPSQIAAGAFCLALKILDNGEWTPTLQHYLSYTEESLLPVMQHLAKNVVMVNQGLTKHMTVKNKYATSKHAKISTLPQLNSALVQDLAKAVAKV
# CDK7HMAT1 [2] = biological target: T2, CDK7HMAT1 (Homo sapiens, UniProt P50613); experiment: biochemical;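 note: kinase activity measured with an ADP-Glo luminescent kinase assay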
# T2 sequence (P50613 whole entry): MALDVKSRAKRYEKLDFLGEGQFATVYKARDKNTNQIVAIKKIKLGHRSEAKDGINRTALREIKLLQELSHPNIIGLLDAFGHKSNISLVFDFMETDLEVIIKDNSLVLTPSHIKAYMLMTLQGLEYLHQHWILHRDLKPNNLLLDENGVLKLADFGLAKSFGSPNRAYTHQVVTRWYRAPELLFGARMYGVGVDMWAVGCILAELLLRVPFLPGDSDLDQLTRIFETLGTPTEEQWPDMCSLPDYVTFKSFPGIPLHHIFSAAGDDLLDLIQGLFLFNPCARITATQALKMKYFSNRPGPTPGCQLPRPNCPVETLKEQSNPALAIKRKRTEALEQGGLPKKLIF
# T2 sequence (P51946 whole entry partner): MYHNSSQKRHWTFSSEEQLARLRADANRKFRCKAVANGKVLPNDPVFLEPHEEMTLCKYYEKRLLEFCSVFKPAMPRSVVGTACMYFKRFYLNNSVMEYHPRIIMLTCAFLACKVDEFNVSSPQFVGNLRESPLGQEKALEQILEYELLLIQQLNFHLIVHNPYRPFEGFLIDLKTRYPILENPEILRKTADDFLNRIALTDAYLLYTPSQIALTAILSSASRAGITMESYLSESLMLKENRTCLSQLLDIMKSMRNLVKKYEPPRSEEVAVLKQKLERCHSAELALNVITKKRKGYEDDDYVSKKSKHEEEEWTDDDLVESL
# T2 sequence (P51948 whole entry partner): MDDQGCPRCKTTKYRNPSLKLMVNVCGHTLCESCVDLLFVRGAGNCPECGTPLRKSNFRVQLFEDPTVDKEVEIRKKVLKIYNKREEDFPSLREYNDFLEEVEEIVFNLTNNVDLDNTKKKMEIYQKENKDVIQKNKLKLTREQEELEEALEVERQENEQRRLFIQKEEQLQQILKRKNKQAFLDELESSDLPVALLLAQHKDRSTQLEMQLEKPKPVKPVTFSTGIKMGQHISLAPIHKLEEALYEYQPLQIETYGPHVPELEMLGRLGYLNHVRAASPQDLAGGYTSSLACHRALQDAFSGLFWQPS
# Protocol: (§1) Inhibition of FLT3(WT), FLT3(ITD) and FLT3(D835Y) and CDKs were determined using ADP Glo Kinase assays (Promega Corporation, Madison, WI, USA). […] The kinase reactions are run for an optimised time period (FLT3-WT: 120 min, FLT3-ITD: 80 min, FLT3-D835Y: 100 min) at room temperature and then the reaction was stopped by adding 5 μL of ADP Glo reagent. […] Positive and negative controls were performed in 0.5% DMSO in the presence and absence of each FLT3 kinase, respectively. […] Half-maximal inhibition (IC50) values were calculated using a 4-parameter logistic non-linear regression model with Graphpad prism (Version 6.0). Apparent inhibition constants (Ki) values were calculated from Km (ATP) and IC50 values for the respective kinases.
# CDK9/CyclinT1 = CDK9/CyclinT1 (Homo sapiens, UniProt P50750); experiment: ADP Glo kinase assay, CDK9/CyclinT1; format: biochemical; details: CDK9T1; apparent Ki calculated from Km (ATP) and IC50; read-out: CDK inhibition Ki
# Sequence of CDK9/CyclinT1 (P50750 whole entry, species assumed): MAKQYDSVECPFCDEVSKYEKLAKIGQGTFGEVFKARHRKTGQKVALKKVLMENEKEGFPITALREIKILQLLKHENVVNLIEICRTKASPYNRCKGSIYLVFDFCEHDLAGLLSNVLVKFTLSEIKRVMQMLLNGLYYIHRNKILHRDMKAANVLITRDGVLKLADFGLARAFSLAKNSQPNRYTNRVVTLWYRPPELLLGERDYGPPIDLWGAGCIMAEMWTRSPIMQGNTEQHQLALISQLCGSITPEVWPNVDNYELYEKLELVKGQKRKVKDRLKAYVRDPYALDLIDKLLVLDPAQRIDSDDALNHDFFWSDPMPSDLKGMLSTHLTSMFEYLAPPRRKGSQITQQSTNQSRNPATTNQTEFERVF
# Sequence of CDK9/CyclinT1 (O60563 whole entry partner, species assumed): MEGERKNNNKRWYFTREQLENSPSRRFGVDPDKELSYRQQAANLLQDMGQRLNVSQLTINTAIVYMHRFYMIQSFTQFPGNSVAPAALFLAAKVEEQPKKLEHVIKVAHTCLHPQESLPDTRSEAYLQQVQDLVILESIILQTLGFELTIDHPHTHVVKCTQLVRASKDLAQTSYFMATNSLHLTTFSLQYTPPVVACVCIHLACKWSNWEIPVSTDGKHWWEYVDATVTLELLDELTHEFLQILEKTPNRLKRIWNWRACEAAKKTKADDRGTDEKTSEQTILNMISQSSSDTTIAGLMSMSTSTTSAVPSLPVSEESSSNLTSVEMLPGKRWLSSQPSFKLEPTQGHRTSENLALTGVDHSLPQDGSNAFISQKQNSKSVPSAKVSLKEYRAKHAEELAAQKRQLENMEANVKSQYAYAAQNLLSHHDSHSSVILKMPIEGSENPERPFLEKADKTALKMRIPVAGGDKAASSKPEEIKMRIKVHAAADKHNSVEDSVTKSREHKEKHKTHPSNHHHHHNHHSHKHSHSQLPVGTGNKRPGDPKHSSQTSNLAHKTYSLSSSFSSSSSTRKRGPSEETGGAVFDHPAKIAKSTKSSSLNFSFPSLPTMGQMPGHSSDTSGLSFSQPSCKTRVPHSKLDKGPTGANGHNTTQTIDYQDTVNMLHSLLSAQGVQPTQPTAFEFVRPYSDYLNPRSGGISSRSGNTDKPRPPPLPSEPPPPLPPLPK
# Protocol: Inhibition of FLT3(WT), FLT3(ITD) and FLT3(D835Y) and CDKs were determined using ADP Glo Kinase assays (Promega Corporation, Madison, WI, USA). […] Similarly, kinase reaction for CDK4/D1 and CDK6/D3 was performed with reaction buffer (40 nM Tris base pH 7.5, 20 mM MgCl2, 0.4 mM DTT), 0.1 mg/ml BSA and RB-CTF substrate (retinoblastoma protein1 C-terminal fraction). For CDK9/CyclinT1, the kinase reaction was performed with the standard assay buffer and Kinase Dilution Buffer and RBER-IRStide substrate. Half-maximal inhibition (IC50) values were calculated using a 4-parameter logistic non-linear regression model with Graphpad prism (Version 6.0). Apparent inhibition constants (Ki) values were calculated from Km (ATP) and IC50 values for the respective kinases.
# CDK4/D1 = CDK4/D1 (Homo sapiens, UniProt P11802); experiment: ADP Glo kinase assay, CDK4/D1; format: biochemical; details: CDK4D1; for Ki: apparent Ki calculated from Km (ATP) and IC50, read-out: CDK inhibition Ki; for remaining activity at 1 µM: compound at 1 μM (values marked *), read-out: residual enzymatic activity (%) at 1 μM*
# Sequence of CDK4/D1 (P11802 whole entry, species assumed): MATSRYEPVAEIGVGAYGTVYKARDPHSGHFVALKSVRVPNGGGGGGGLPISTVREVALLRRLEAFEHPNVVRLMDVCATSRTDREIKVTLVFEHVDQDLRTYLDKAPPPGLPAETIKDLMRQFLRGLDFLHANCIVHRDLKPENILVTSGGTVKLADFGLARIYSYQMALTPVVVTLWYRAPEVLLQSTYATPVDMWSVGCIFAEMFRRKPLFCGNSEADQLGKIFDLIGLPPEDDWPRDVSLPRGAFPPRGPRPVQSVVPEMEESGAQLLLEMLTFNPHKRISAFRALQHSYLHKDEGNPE
# Sequence of CDK4/D1 (P24385 whole entry partner, species assumed): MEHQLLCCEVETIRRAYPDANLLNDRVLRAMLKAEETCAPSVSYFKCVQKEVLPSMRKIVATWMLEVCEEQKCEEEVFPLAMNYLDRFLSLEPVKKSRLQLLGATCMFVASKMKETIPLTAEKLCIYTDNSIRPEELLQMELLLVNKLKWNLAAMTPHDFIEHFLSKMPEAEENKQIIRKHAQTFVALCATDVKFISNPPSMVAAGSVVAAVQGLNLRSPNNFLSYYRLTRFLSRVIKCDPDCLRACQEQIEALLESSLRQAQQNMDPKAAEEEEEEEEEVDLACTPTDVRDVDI
# CDK2E1 [3] = biological target: T3, CDK2E1 (Homo sapiens, UniProt P24941); details: 1 µM
# FLT3(ITD) = biological target: T4, FLT3(ITD) (Homo sapiens, UniProt P36888); experiment: ADP Glo kinase assay, FLT3(ITD); format: biochemical; details: apparent Ki calculated from Km (ATP) and IC50, read-out: FLT3 inhibition Ki
# T4 sequence (P36888 1-993): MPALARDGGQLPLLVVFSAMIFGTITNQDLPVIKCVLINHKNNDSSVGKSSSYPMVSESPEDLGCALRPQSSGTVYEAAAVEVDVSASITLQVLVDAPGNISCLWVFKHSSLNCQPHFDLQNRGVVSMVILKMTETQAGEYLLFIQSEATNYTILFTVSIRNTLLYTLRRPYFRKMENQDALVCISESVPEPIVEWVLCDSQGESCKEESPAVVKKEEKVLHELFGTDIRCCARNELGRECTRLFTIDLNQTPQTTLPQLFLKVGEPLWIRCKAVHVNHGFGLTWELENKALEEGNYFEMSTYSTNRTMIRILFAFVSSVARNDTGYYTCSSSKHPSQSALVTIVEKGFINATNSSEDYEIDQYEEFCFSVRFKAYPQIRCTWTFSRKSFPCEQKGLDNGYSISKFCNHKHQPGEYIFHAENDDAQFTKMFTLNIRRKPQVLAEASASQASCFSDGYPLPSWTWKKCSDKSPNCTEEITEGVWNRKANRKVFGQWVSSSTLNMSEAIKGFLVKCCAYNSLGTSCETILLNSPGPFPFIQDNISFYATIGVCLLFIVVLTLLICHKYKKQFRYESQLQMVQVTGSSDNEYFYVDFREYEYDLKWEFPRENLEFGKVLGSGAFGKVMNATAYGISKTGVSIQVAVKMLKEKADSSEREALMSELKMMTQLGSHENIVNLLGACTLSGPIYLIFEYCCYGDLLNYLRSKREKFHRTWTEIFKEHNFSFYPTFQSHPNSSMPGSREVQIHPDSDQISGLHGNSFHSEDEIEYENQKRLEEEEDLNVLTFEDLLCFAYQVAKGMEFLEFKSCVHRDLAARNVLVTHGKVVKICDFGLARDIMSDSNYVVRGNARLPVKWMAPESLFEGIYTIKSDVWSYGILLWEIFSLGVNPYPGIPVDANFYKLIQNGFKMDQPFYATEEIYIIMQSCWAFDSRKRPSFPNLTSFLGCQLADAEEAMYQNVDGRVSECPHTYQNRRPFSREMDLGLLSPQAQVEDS
# Protocol: as §1
# FLT3(WT) = biological target: T5, FLT3(WT) (Homo sapiens, UniProt P36888); experiment: ADP Glo kinase assay, FLT3(WT); format: biochemical; details: compound at 1 μM, read-out: residual enzymatic activity (%) at 1 μM
# T5 sequence (P36888 27-993): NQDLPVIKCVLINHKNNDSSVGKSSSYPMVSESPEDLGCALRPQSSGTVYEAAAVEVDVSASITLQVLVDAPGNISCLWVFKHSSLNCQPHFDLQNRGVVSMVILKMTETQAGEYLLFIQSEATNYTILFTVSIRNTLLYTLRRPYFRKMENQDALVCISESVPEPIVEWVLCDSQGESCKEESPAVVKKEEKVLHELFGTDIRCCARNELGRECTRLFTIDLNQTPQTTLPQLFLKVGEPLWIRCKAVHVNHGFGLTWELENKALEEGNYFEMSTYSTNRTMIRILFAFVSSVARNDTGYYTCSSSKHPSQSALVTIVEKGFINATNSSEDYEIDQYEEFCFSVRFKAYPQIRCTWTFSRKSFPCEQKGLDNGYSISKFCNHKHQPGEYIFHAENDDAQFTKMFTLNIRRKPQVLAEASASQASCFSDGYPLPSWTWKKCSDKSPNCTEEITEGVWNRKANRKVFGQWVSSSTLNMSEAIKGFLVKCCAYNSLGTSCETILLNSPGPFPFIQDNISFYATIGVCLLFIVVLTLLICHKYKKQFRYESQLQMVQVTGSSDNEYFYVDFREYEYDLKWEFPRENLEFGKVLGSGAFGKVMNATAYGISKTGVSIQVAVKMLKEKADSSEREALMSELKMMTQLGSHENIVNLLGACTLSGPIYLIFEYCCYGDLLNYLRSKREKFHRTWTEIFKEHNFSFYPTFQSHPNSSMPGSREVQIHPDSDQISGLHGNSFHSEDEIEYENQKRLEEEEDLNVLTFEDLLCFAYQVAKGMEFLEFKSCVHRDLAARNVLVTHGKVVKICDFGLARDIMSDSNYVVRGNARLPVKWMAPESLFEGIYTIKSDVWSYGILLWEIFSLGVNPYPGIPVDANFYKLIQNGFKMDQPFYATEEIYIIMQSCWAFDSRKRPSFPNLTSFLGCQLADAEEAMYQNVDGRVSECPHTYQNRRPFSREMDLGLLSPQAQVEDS
# Protocol: as §1
# FLT3(D835Y) = biological target: T6, FLT3(D835Y) (Homo sapiens, UniProt P36888, D835Y); experiment: ADP Glo kinase assay, FLT3(D835Y); format: biochemical; details: apparent Ki calculated from Km (ATP) and IC50, read-out: FLT3 inhibition Ki
# T6 sequence (P36888 27-993 D835Y): T5 sequence (P36888 27-993) with D809Y
# Protocol: as §1
# CDK2E1 [4] = biological target: T3, CDK2E1; experiment: biochemical
# CDK7HMAT1 [5] = biological target: T2, CDK7HMAT1; details: 10 µM
# Protocol: as §1
# CDK1B [6] = biological target: T1, CDK1B
Ki (CDK6/D3),GI50 (U937),GI50 (MV-4-11),Ki (CDK1B [1]),Ki (CDK7HMAT1 [2]),Ki (CDK9/CyclinT1),Ki (CDK4/D1),activity (CDK2E1 [3]),Ki (FLT3(ITD)),remaining activity at 1 µM (FLT3(WT)),Ki (FLT3(D835Y)),Ki (CDK2E1 [4]),activity (CDK7HMAT1 [5]),remaining activity at 10 µM (CDK6/D3),activity (CDK1B [6]; 10 µM),"remaining activity at 10 µM (CDK4/D1; compound at 10 μM, read-out: residual enzymatic activity (%) at 10 μM)",remaining activity at 1 µM (CDK6/D3),activity (CDK1B [6]; 1 µM),remaining activity at 1 µM (CDK4/D1),Compound
900 nM,497 nM,9 nM,1340 nM,1190 nM,37 nM,116 nM,69%,–,–,–,–,–,–,–,–,–,–,–,"c1ccn2c(-c3ccnc(Nc4ccc(N5CCNCC5)cn4)n3)cnc2c1 [Cmpd 1, 4-(Imidazo[1,2-a]pyridin-3-yl)-N-(5-(piperazin-1-yl)pyridin-2-yl)pyrimidin-2-amine]"
1050 nM,504 nM,35 nM,1990 nM,1700 nM,85 nM,155 nM,–,235 nM,33%,49 nM,–,–,–,–,–,–,–,–,"CN1CCN(c2ccc(Nc3nccc(-c4cnc5ccccn45)n3)nc2)CC1 [Cmpd 2, 4-(Imidazo[1,2-a]pyridin-3-yl)-N-(5-(4-methylpiperazin-1-yl)pyridin-2-yl)pyrimidin-2-amine]"
370 nM,512 nM,124 nM,148 nM,–,41 nM,218 nM,–,15 nM,34%,17 nM,84 nM,43%,–,–,–,–,–,–,"c1ccc(Nc2nccc(-c3cnc4ccccn34)n2)nc1 [Cmpd 7, 4-(Imidazo[1,2-a]pyridin-3-yl)-N-(pyridin-2-yl)pyrimidin-2-amine]"
–,690 nM,2 nM,> 500 nM,148 nM,427 nM,340 nM,52%,–,–,–,–,–,76%,–,–,–,–,–,"CC(=O)N1CCN(c2ccc(Nc3nccc(-c4cnc5ccc(-c6cccs6)cn45)n3)nc2)CC1 [Cmpd 17, 1-(4-(6-((4-(6-(Thiophen-2-yl)imidazo[1,2-a]pyridin-3-yl)pyrimidin-2-yl)amino)pyridin-3-yl)piperazin-1-yl)ethan-1-one]"
–,466 nM,25 nM,–,1190 nM,125 nM,–,24%,–,–,–,–,–,61%,35%,66%,–,–,–,"CC(=O)N1CCN(c2ccc(Nc3nccc(-c4cnc5ccc(-c6cn[nH]c6)cn45)n3)nc2)CC1 [Cmpd 24, 1-(4-(6-((4-(6-(1H-Pyrazol-4-yl)imidazo[1,2-a]pyridin-3-yl)pyrimidin-2-yl)amino)pyridin-3-yl)piperazin-1-yl)ethan-1-one]"
–,765 nM,5 nM,–,186 nM,71 nM,–,40%,–,–,–,–,–,–,–,–,52%,95%,75%,"CC(=O)N1CCN(c2ccc(Nc3nccc(-c4cnc5ccc(-c6ccoc6)cn45)n3)nc2)CC1 [Cmpd 25, 1-(4-(6-((4-(6-(Furan-3-yl)imidazo[1,2-a]pyridin-3-yl)pyrimidin-2-yl)amino)pyridin-3-yl)piperazin-1-yl)ethan-1-one]"
–,19100 nM,5 nM,–,–,308 nM,–,–,–,–,–,301 nM,–,–,–,–,38%,50%,37%,"CC(=O)N1CCN(c2ccc(Nc3ncc(F)c(-c4cnc5ccc(C)cn45)n3)nc2)CC1 [Cmpd 31, 1-(4-(6-((5-Fluoro-4-(6-methylimidazo[1,2-a]pyridin-3-yl)pyrimidin-2-yl)amino)pyridin-3-yl)piperazin-1-yl)ethan-1-one]"
–,350 nM,72 nM,–,–,–,–,–,–,–,–,116 nM,–,–,–,–,–,–,–,"Fc1ccc(Nc2nccc(-c3cnc4ccccn34)n2)nc1 [Cmpd 51, N-(5-Fluoropyridin-2-yl)-4-(imidazo[1,2-a]pyridin-3-yl)pyrimidin-2-amine]"
–,18 nM,17 nM,–,–,41 nM,–,–,11 nM,–,–,197 nM,–,–,–,–,–,–,–,"CN1CCN(c2ccc(Nc3nccc(-c4cnc5ccc(-c6cn[nH]c6)cn45)n3)nc2)CC1 [Cmpd 67, 4-(6-(1H-Pyrazol-4-yl)imidazo[1,2-a]pyridin-3-yl)-N-(5-(4-methylpiperazin-1-yl)pyridin-2-yl)pyrimidin-2-amine]"
